Reference: article PMC10928227, “Assessing biologic/toxicologic effects of extractables from plastic contact materials for advanced therapy manufacturing using cell painting assay and cytotoxicity screening” (Scientific Reports, 2024)
“And” between values parts separate entries of the source, which are not always exact repeats. Equal values may be shown once. “Also recorded” adds a separate entry of the source. Read-outs that look alike come from different tables or passages of the source.

Tests used:
CHO DG44 cells = assay: Cytotoxicity testing with CHO cells, cell growth spiking experiments (ASTM E3231-19); format: cell-based, Chinese hamster; conditions: read-out: EC50 with CHO cells
Method: The cell line was adapted to grow in suspension without animal-derived supplements. […] This method determines effective concentrations (EC50) that cause 50% inhibition of cell growth. Data evaluation was carried out according to the method described in ASTM E3231-19, “Standard Guide for Cell Culture Growth Assessment of Single-Use Material[23]”. This test defines best practices using serum-free, chemically-defined cell culture medium to prevent false negative results.

[1] = test system: murine mesodermal stem cells (C3H10T1/2); assay: Osteogenesis inhibition assay (OIA), purmorphamine-induced alkaline phosphatase expression; format: cell-based; conditions: for IC50: read-out: Osteogenesis inhibition assay IC50
Method: The osteogenesis inhibition assay was performed as described elsewhere[57]. Briefly, murine mesodermal stem cells (C3H10T1/2) were stimulated with purmorphamine (a Hedgehog agonist) to induce the expression of the osteogenesis marker alkaline phosphatase.

[2] = test system: U2OS human osteosarcoma cells; assay: Cell painting assay (CPA), morphological profiling and cell count; format: cell-based; conditions: for Percentage of changed features, AreaShape group: shape of the cells; for Lysosomotropic behavior in CPA: cluster assignment in words, N-Lauryldiethanolamine at 30 µM
Method: Initially, 5 µL U2OS medium were added to each well of a 384-well plate (PerkinElmer CellCarrier-384 Ultra). Subsequently, U2OS cell were seeded with a density of 1600 cells per well in 20 µL medium. The plate was incubated for 10 min at room temperature (RT), followed by an additional 4 h incubation (37 °C, 5% CO2). […] Incubation with compound was performed for 20 h (37 °C, 5% CO2). Subsequently, mitochondria were stained with Mito Tracker Deep Red (Thermo Fisher Scientific, Cat. No. M22426). The Mito Tracker Deep Red stock solution (1 mM) was diluted to a final concentration of 100 nM in prewarmed medium. The medium was removed from the plate leaving 10 µL residual volume and 25 µL of the Mito Tracker solution were added to each well. The plate was incubated for 30 min in darkness (37 °C, 5% CO2). To fix the cells, 7 µl of 18.5% formaldehyde in PBS were added, resulting in a final formaldehyde concentration of 3.7%. Subsequently, the plate was incubated for another 20 min in darkness (RT) and washed three times with 70 µL of PBS (Biotek Washer Elx405). Cells were permeabilized by addition of 25 µL 0.1% Triton X-100 to each well, followed by 15 min incubation (RT) in darkness. The cells were washed three times with PBS leaving a final volume of 10 µL. To each well 25 µL of a staining solution were added, which contains 1% BSA, 5 µL/mL Phalloidin (Alexa594 conjugate, Thermo Fisher Scientific, A12381), 25 µg/ml Concanavalin A (Alexa488 conjugate, Thermo Fisher Scientific, Cat. No. C11252), 5 µg/ml Hoechst 33342 (Sigma, Cat. No. B2261-25 mg), 1.5 µg/ml WGA-Alexa594 conjugate (Thermo Fisher Scientific, Cat. No. W11262) and 1.5 µM SYTO 14 solution (Thermo Fisher Scientific, Cat. No. S7576). The plate is incubated for 30 min (RT) in darkness and washed three times with 70 µL PBS. After the final washing step, the PBS was not aspirated. The plates were sealed and centrifuged for 1 min at 50 × g.
The images generated were processed with the CellProfiler package (https://cellprofiler.org/, version 3.0.0) on a computing cluster of the Max Planck Society to extract 1716 cell features per microscope site. The data was further aggregated as medians per well (9 sites → 1 well), then over the three replicates.
Out of the initial 1716 features, a subset of 579 highly reproducible and robust features was determined using a procedure based on the criteria described by Woehrmann et al.[54] Two biological repeats of one plate containing reference compounds were analysed. For every feature, its full profile over each whole plate was calculated. […] This procedure was performed once and served as the basis for all subsequent analyses.
The phenotypic profiles were compiled from the Z-scores of all individual cellular features, where the Z-score is a measure of how far away a data point is from a median value.
Specifically, Z-scores of test compounds were calculated relative to the Median of DMSO controls. Thus, the Z-score of a test compound defines how many MADs (Median Absolute Deviations) the measured value is away from the Median of the controls as illustrated by the following formula: Z-score=valuemeas.-MedianControls/MADControls
The phenotypic compound profile is then determined as the list of Z-scores of all features for one compound and is visualized via heatmap (examplarily see Fig. 2).

[3] = cited from earlier work; for Gene mutation, Mammalian Cell Gene Mutation Assay: T-lymphoma Cell Lines
CHO cells = test system: CHO cells; design: method as in ref 22 (supplement); conditions: detrimental effect on cell growth; ref 22 (supplement); cited from earlier work
[4] = test system: different industrial cell lines; design: method as in PMID 34411651, PMID 32535801, PMID 32748552; conditions: read-out: EC50 cell growth; cited from earlier work
[5] = cited from earlier work
[6] = design: method as in ref EURL ECVAM genotoxicity and carcinogencity database, Madia F et al, 2020; conditions: scale Mutagenicity I (ECVAM), ref EURL ECVAM genotoxicity and carcinogencity database, Madia F et al, 2020; cited from earlier work
[7] = 30 µM, U2OS, 20 h, percentage of altered features (579) vs DMSO controls
[8] = biosimilarity of CPA sub-profile to cluster
[9] = CHO DG44, serum-free chemically defined medium, 72 h, 50% inhibition of cell growth
[10] = C3H10T1/2, purmorphamine, 96 h, alkaline phosphatase expression
[11] = Database Genotoxicity & Carcinogenicity ECVAM, ref EURL ECVAM genotoxicity and carcinogencity database, Madia F et al, 2020
[12] = in Vivo, Database Genotoxicity & Carcinogenicity ECVAM, ref EURL ECVAM genotoxicity and carcinogencity database, Madia F et al, 2020
[13] = in Vivo, Database Genotoxicity OASIS, ref Yu F. Sasaki et. al., 2000, Critical Reviews in Toxicology,30(6),Pp.629-799
[14] = in Vitro, Chinese hamster, Chinese Hamster Lung (CHL), Duration 24÷48 h, Database Genotoxicity OASIS, ref Sofuni, T., Ed. (1998). Data Book of Chromosomal Aberration Test In Vitro, Revised Edition
[15] = in Vitro, Database Genotoxicity & Carcinogenicity ECVAM, ref EURL ECVAM genotoxicity and carcinogencity database, Madia F et al, 2020
[16] = in Vitro, Database Genotoxicity OASIS, ref Mutation Research 584 (2005) 1-256, Kirkland et al.

In the case of `CCCCCCCCCc1ccc(O)cc1` [4-n-Nonylphenol], the EC50 (CHO DG44 cells; Cricetulus griseus, CHO-DG44, 72 h) is reported as greater than 4.5 µM, the IC50 ([1]; Mus musculus, C3H 10T1/2, 96 h) is reported as 3.8 µM and the “Induction in CPA” value [2, 7] is reported as 17 (30 µM) %. For the same molecule, the Cell count ([2]; 50 µM, U2OS, 20 h) was 91 (50 µM) % of control and the “Highest similarity to biological clusters: DNA synthesis” value [2, 8] was “DNA synthesis (70%)”.
In the case of `Cc1cc(C)c(C(=O)P(=O)(c2ccccc2)c2ccccc2)c(C)c1` [TPO, diphenyl(2,4,6-trimethylbenzoyl)phosphine oxide], the “Risk based on in vitro genotoxicity data from database (from QSAR-toolbox)” value ([3]; not checked for in vivo relevance, ref QSAR Toolbox 4.5 database) is given as “No alert”, the EC50 (CHO DG44 cells; Cricetulus griseus, CHO DG44, serum-free chemically defined medium, 72 h, 50% inhibition of cell growth) is given as 4.4 µM and the IC50 ([1]; Mus musculus, C3H 10T1/2, C3H10T1/2, purmorphamine, 96 h, alkaline phosphatase expression) is given as 5 µM. The “Induction in CPA” value [2, 7] was 11 (30 µM) %, the Cell count ([2]; 50 µM, U2OS, 20 h) was 94 (50 µM) % of control and the “Percentage of changed features, nuclei (Hoechst) channel” value ([2]; Fig. 6) was “approx. 5%”. The “Percentage of changed features, AreaShape group” value ([2]; Fig. 6) was roughly 30%, the “Highest similarity to biological clusters: HDAC” value [2, 8] was 77% and the “Lysosomotropic behavior in CPA” value [2] was “lysosomotropic behavior; also recorded: Weak lysosomotropic”.
With `CCCCCCCCCCCCN(CCO)CCO` [N-Lauryldiethanolamine] the EC50 (CHO DG44 cells; [9]) was 2.1 µM, the “Toxic concentration in the osteogenesis inhibition assay” value ([1]; C3H10T1/2, excluded from dose-response measurement) was no less than 10 µM and the IC50 [1, 10] was no less than 10 µM. The “Induction in CPA” value ([2]; 3 µM, U2OS, 20 h, percentage of altered features (579) vs DMSO controls) was 61% and 61 (3 µM) %, the “U2OS cell count compared to the control” value ([2]; 30 µM, after 24 h incubation) was 50% and the Cell count ([2]; 50 µM, U2OS, 20 h) was 11 (50 µM) % of control. For the same molecule, the “Percentage of changed features, all channels” value ([2]; Fig. 6, 3 µm) was 50 to 90%, the “Percentage of changed features, AreaShape group” value ([2]; Fig. 6) was “all features” and the “Concentration from which strong inhibitory effect on cell growth starts” value ([2]; U2OS, CPA) was no less than 30 µM. For the same molecule, the “Highest similarity to biological clusters: Cholesterol homeostasis” value [2, 8] was 88%, the “Lysosomotropic behavior in CPA” value [2] was “some lysosomotropic behavior” and the “Induction in CPA” value ([2]; tested concentrations ≤ 50 µM, concentration not given at the place, active threshold 5%) was greater than 5%.
In the case of `CC(C)(C)c1ccc(OP(=O)(O)Oc2ccc(C(C)(C)C)cc2C(C)(C)C)c(C(C)(C)C)c1` [bDtBPP, bis(2,4-di-tert-butylphenyl)phosphate], the EC50 (CHO DG44 cells; [9]) is given as 0.6 µM, the EC50 (CHO cells) is given as less than 1 µM and the EC50 [4] is given as less than 1 µM. The IC50 [1, 10] was 6.8 µM, the Cell count ([2]; 50 µM, U2OS, 20 h) was 87 (50 µM) % of control and the “Induction in CPA” value ([2]; 50 µM, U2OS, 20 h, percentage of altered features (579) vs DMSO controls) was 17 (50 µM) %. For the same molecule, the “Percentage of changed features, AreaShape group” value ([2]; Fig. 6) was “approx. 20%”, the “Highest similarity to biological clusters: DNA synthesis” value [2, 8] was “DNA synthesis (65%)” and the “Impact on cell growth of U2OS cells” value ([2]; concentrations ≤ 50 µM, in words) was “no impact on cell growth”.
In the case of `Cc1cc(C(C)(C)C)c(O)c(C(C)(C)C)c1` [128-37-0], the “Chromosome aberration, in Vivo Mammalian Chromosome Aberration Test” value [5, 11] is listed as “Negative”, the “Chromosome aberration, Micronucleus Assay” value [5, 12] is listed as “Negative” and the “DNA damage and repair, COMET or Alkaline Elution” value [5, 12] is listed as “Positive”. The “DNA damage and repair, DNA Adducts” value [5, 12] was “Negative”, the “Chromosome aberration, Micronucleus Assay” value ([5]; in Vivo, Database Genotoxicity OASIS, ref Bruce, W. R., & Heddle, J. A. (1979), Can. J. Genet. Cytol. 21, 319-334) was “Negative” and the “DNA damage and repair, Single Cell Gel Electrophoresis (comet) Assay” value [5, 13] was “Negative”. For the same molecule, the “Chromosome aberration, in Vitro Mammalian Chromosome Aberration Test” value ([3]; in Vitro, Chinese hamster, Chinese Hamster Lung (CHL), Duration 6÷18 h, Database Genotoxicity OASIS, ref Sofuni, T., Ed. (1998). Data Book of Chromosomal Aberration Test In Vitro, Revised Edition) was “Negative”, the “Chromosome aberration, in Vitro Mammalian Chromosome Aberration Test” value [3, 14] was “Negative” and the “Chromosome aberration, in Vitro Mammalian Chromosome Aberration Test” value [3, 15] was “Equivocal”. The “Gene mutation, Mammalian Cell Gene Mutation (MLA HPRT)” value [3, 15] was “Positive”, the “Chromosome aberration, in Vitro Mammalian Chromosome Aberration Test” value ([3]; in Vitro, No Strain Information, Database Genotoxicity OASIS, ref Mutation Research 584 (2005) 1-256, Kirkland et al.) was “Negative” and the “Gene mutation, Mammalian Cell Gene Mutation Assay” value [3, 16] was “Positive”.
In the case of `O=C1CCCCCN1` [105-60-2], the “Chromosome aberration, in Vivo Mammalian Chromosome Aberration Test” value [5, 11] is listed as “Negative”, the “Chromosome aberration, Micronucleus Assay” value [5, 12] is listed as “Negative” and the “DNA damage and repair, COMET or Alkaline Elution” value [5, 12] is listed as “Negative”. The “DNA and protein damage, Liver Micronucleus” value ([5]; in Vivo, Database Genotoxicity OASIS, ref T. Shirotori, M. Miyagawa, Proceeding of the 26th JEMS Annual Meeting, Hatano, 1997, p. 83) was “Negative”, the “Chromosome aberration, Micronucleus Assay” value [5, 13] was “Negative” and the “DNA damage and repair, Single Cell Gel Electrophoresis (comet) Assay” value [5, 13] was “Negative”. The “Gene mutation, Bacterial Reverse Mutation Assay (e.g. Ames Test)” value (from here on “Gene mutation … (e.g. Ames Test)”) ([3]; Salmonella typhimurium, No Strain Information, in Vitro, Database: Genotoxicity OASIS, ref Mutation Research 584 (2005) 1-256, Kirkland et al.) was “Negative”, the “Gene mutation … (e.g. Ames Test)” value ([3]; Salmonella typhimurium, Strain TA 97, in Vitro, Database: Bacterial mutagenicity ISSSTY, ref CCRIS database,Toxnet databases (Romualdo Benigni)) was “Negative” and the “Gene mutation … (e.g. Ames Test)” value ([3]; Salmonella typhimurium, Strain TA 98, in Vitro, Database: Bacterial mutagenicity ISSSTY, ref CCRIS database,Toxnet databases (Romualdo Benigni)) was “Negative”. The “Gene mutation … (e.g. Ames Test)” value ([3]; Salmonella typhimurium, Strain TA 98, in Vitro, Database: Genotoxicity OASIS, ref P&G) was “Negative”, the “Gene mutation … (e.g. Ames Test)” value ([3]; Salmonella typhimurium, Strain TA 100, in Vitro, Database: Bacterial mutagenicity ISSSTY, ref CCRIS database,Toxnet databases (Romualdo Benigni)) was “Negative” and the “Gene mutation … (e.g. Ames Test)” value ([3]; Salmonella typhimurium, Strain TA 100, in Vitro, Database: Genotoxicity OASIS, ref P&G) was “Negative”. For the same molecule, the “Gene mutation … (e.g. Ames Test)” value ([3]; Salmonella typhimurium, Strain TA 102, in Vitro, Database: Bacterial mutagenicity ISSSTY, ref CCRIS database,Toxnet databases (Romualdo Benigni)) was “Negative”, the “Gene mutation … (e.g. Ames Test)” value ([3]; Salmonella typhimurium, Strain TA 1535, in Vitro, Database: Bacterial mutagenicity ISSSTY, ref CCRIS database,Toxnet databases (Romualdo Benigni)) was “Negative” and the “Gene mutation … (e.g. Ames Test)” value ([3]; Salmonella typhimurium, Strain TA 1535, in Vitro, Database: Genotoxicity OASIS, ref P&G) was “Negative”. For the same molecule, the “Gene mutation … (e.g. Ames Test)” value ([3]; Salmonella typhimurium, Strain TA 1537, in Vitro, Database: Bacterial mutagenicity ISSSTY, ref CCRIS database,Toxnet databases (Romualdo Benigni)) was “Negative”, the “Gene mutation … (e.g. Ames Test)” value ([3]; Salmonella typhimurium, Strain TA 1537, in Vitro, Database: Genotoxicity OASIS, ref P&G) was “Negative” and the “Gene mutation … (e.g. Ames Test)” value ([3]; Salmonella typhimurium, Strain TA 1538, in Vitro, Database: Bacterial mutagenicity ISSSTY, ref CCRIS database,Toxnet databases (Romualdo Benigni)) was “Negative”. The “Chromosome aberration, in Vitro Mammalian Chromosome Aberration Test” value ([3]; in Vitro, Chinese hamster, Chinese Hamster Lung (CHL), Database Genotoxicity OASIS, ref ECHA, Registration dossier) was “Positive”, the “Chromosome aberration, in Vitro Mammalian Chromosome Aberration Test” value [3, 14] was “Negative” and the “Chromosome aberration, Micronucleus Assay” value [3, 15] was “Negative”. For the same molecule, the “Chromosome aberration, in Vitro Mammalian Chromosome Aberration Test” value [3, 15] was “Negative”, the “DNA damage and repair, COMET or Alkaline Elution” value [3, 15] was “Negative” and the “Gene mutation … (e.g. Ames Test)” value [3, 15] was “Negative”. For the same molecule, the “Gene mutation, Mammalian Cell Gene Mutation (MLA HPRT)” value [3, 15] was “Negative”, the “Gene mutation … (e.g. Ames Test)” value ([3]; in Vitro, Salmonella typhimurium, No Strain Information, Database Genotoxicity OASIS, ref Journal of Medicinal Chemistry 48 (1), pp. 312-32, 25, Kazius J, McGuire R., Bursi R) was “Negative” and the “Gene mutation … (e.g. Ames Test)” value ([3]; in Vitro, Salmonella typhimurium, Strain TA 97, Database Genotoxicity OASIS, ref P&G) was “Negative”. The “Gene mutation … (e.g. Ames Test)” value ([3]; in Vitro, Salmonella typhimurium, Strain TA 98, Database Genotoxicity OASIS, ref P&G) was “Negative”, the “Gene mutation … (e.g. Ames Test)” value ([3]; in Vitro, Salmonella typhimurium, Strain TA 100, Database Genotoxicity OASIS, ref P&G) was “Negative” and the “Gene mutation … (e.g. Ames Test)” value ([3]; in Vitro, Salmonella typhimurium, Strain TA 102, OECD Guideline 471, Database Genotoxicity OASIS, ref CCRIS database,Toxnet databases) was “Negative”. The “Gene mutation … (e.g. Ames Test)” value ([3]; in Vitro, Salmonella typhimurium, Strain TA 1535, Database Genotoxicity OASIS, ref P&G) was “Negative”, the “Gene mutation … (e.g. Ames Test)” value ([3]; in Vitro, Salmonella typhimurium, Strain TA 1537, Database Genotoxicity OASIS, ref P&G) was “Negative” and the “Gene mutation … (e.g. Ames Test)” value ([3]; in Vitro, Salmonella typhimurium, Strain TA 1538, Database Genotoxicity OASIS, ref P&G) was “Negative”. The “Gene mutation, Mammalian Cell Gene Mutation Assay” value [3, 16] was “Negative”, the “Genetic Toxicity, unscheduled DNA synthesis (UDS in Vitro)” value ([3]; in Vitro, scale Mutagenicity I (ECVAM), ref EURL ECVAM genotoxicity and carcinogencity database, Madia F et al, 2020) was “Negative” and the “Genetic Toxicity, unscheduled DNA synthesis (UDS in Vivo)” value [6] was “Negative”.
